Results as given in US6537670B1, “Bis(alkyleneoxybenzophenone) ultraviolet light absorbers” (Cytec Technology Corp., priority 2000, dated 2003).

How the values were obtained:
[1] = Volatility of UV absorbers: Thermogravimetric Analysis (TGA) T-10% values; format: physicochemical; conditions: for T-10% (TGA, temperature required for 10% of the material to volatilize): Thermogravimetric Analysis
Source text: One approach that has been taken to reduce the loss of absorbers from polymeric substrates has been to increase their molecular weight, either by using an absorber with attached high molecular weight groups, or by adding a group which will bind two or more absorbing nuclei in the same molecule, thus increasing molecular weight. U.S. Pat. No. 4,278,589 provides an example of the former approach, and describes benzotriazoles with large groups attached at the 3- and 5-positions. Of the latter approach, benzophenones, benzotriazoles and other molecules have been dimerized to reduce volatility. U.S. Pat. Nos. 5,108,835 and 4,948,666 describe articles with capstock layers stabilized by 2-hydroxyphenylbenzotriazoles which are bridged by various groups. One structure encompassed by the description is a 2-hydroxyphenylbenzotriazole bridged by a methylene group in the 3-position. These materials have relatively low volatility, as measured by the high temperature required for 10% of the materials to volatilize during Thermogravimetric Analysis. This temperature, known as the TGA T-10% value, is approximately 365° C. for the methylenebis{(5-tert-octyl-2-hydroxyphenyl)benzotriazole} known commercially as LA-31, Mixxim BB-100 or Tinuvin 360 (supplied by Asahi Denka, Fairmount Chemical and Ciba Specialty Chemicals, respectively), versus a TGA T-10% value of 245° C. for the non-dimerized (5-tert-octyl-2-hydroxyphenyl)benzotriazole known commercially as CYASORB® UV-5411. Also described have been 2,4-dihydroxybenzophenones which are dimerized by attachment through the 4-oxygen by an ether bond to two carbons of an aliphatic group. Compounds of this type have been described in U.S. Pat. Nos. 3,580,927 and 3,666,713 and CZ Appl. 135,115, JP Sho 47-48888, JP Sho 44-26456 and GB 1, 296,240. Capstock articles stabilized by some of these compounds, and a method for preparing the same are described in U.S. Pat. Nos. 5,445,872 and 5,306,456. Descriptions of benzotriazoles and benzophenones bridged by attachment of other groups may be found in U.S. Pat. Nos. 5,589,529 and 4,859,726 (for benzotriazoles) and JP Sho 57-12643 (for benzophenones). Many of the compounds described above, while solving the problem of volatility, have other limitations, including low solubility and high initial color when processed into the plastic substrate.
Volatility of UV Absorbers
Thermogravimetric Analysis (TGA) T-10% Values

[2] = Weathering resistance of polycarbonate plaques, 12-Month Florida Data; conditions: for % Weathering Resistance: 0.35% additive in Lexan 121 PC, 12-Month Florida Data, [1-YI(additive)YI of Blank] × 100
Protocol: The performance of the additives was evaluated in comparison to the control (no stabilizer) by compounding into polycarbonate and studying the properties of the compounded plaques. Polycarbonate plaques were prepared by: (1) dry blending the additives at 0.35 weight % with GE Lexan 121-112 polycarbonate (2) extruding the blend in a Haake torque rheometer base using a 0.75 inch 25:1 single screw extruder −4 zone, single pass, at 50-65 RPM speed, with zone 1, zone 2, zone 3, and zone 4 temperatures at 265, 265, 270 and 275° C., respectively, (3) pulling through a water bath, (4) drying, (5) pelletizing, (6) redrying at 120° C. for 4-48 hours in a forced air oven, (7) injection molding in an Arburg ‘Allrounder’ hydraulic injection molder (2×2.5 0.100″ plaques). Temperatures used were as follows: nozzle, 275° C., nozzle side, 280° C., middle, 275° C., feed, 266° C., mold, 95° C. The plaques were irradiated in a Xenon Arc Weatherometer as described by ASTM G-26 Standard using Test Method B with alternate exposure to light and darkness and an intermittent exposure to water spray maintaining an atmosphere temperature of 63±3° C. and a relative humidity of 30±5% (Miami, Fla. conditions). Color (YI) was determined with a Macbeth Color Eye […] under Lab conditions with illuminate C, 2° observer, specular component excluded, and UV component included. Hydrolytic testing was performed by heating plaques with water at 120° C. for 6 hours in an All American Electric Pressure Sterilizer, Model No. 25×, measuring YI before and after treatment.
% Weathering Resistance of Plaques (0.35% Additive in Lexan® 121 PC)

[3] = Capstock weathering: Delta YI after xenon-arc weatherometer exposure; conditions: 7% in Capstock PC-Lexan 105
Protocol: The performance of the compounds was evaluated in comparison to the control (no stabilizer) in a polycarbonate thin film laminated to an unstabilized polycarbonate plaque. The films were prepared by (1) dry blending the additives at 7 wt. % with Lexan 105 virgin flake and 0.1% Mark 2112 phosphite, (2) extruding the blend in a Haake torque rheometer base equipped with a 0.75 inch 25:1 single mixing screw extruder −4 zone, single pass at 55-65 rpm speed, with zone 1, zone 2, zone 3, and zone 4 temperatures at 246, 265, 295, and 304° C., respectively, (3) pulling through a water bath, (4) drying, (5) pelletizing, (6) redrying at 120° C. for 4-48 hours in a forced air oven, and (7) compression molding from compounded pellets into 2 mil films at 300° C. using a 30 second dwell hold without pressure, and a 30-second dwell hold with 35 kpsi pressure. […] The laminated sample plaques were exposed in the xenon-arc weatherometer as determined by ASTM G-26 Standard using Test Method B with alternate exposure to light and darkness and an intermittent exposure to water spray maintaining an atmosphere temperature of 63±3° C. and a relative humidity of 30±5% (Miami, Fla. conditions). Color (YI) was determined with a Macbeth Color Eye Colorimeter under Lab conditions with illuminate C, 2° observer, specular component excluded, and UV component included. […]

[4] = Solubility of compounds in organic solvents; conditions: 25° C.

CC(C)(C)CC(C)(C)c1ccc(O)c(-n2nc3ccccc3n2)c1 [Compound A, 2-(2′-hydroxy-5′-(1,1,3,3-tetramethylbutyl)phenyl)benzotriazole]
TGA T-10% value [1]: 245 °C | T-10% (TGA, temperature required for 10% of the material to volatilize) [1]: 245 °C

O=C(c1ccccc1)c1ccc(OCCO)cc1O [Compound B, 2-hydroxy-4-(hydroxyethoxy)benzophenone]
T-10% (TGA, temperature required for 10% of the material to volatilize) [1]: 257 °C

CC(C)(c1ccccc1)c1cc(-n2nc3ccccc3n2)c(O)c(C(C)(C)c2ccccc2)c1 [Compound C, 2-(3′,5′-bis(α,α-dimethylbenzyl)-2′hydroxyphenyl)benzotriazole]
T-10% (TGA, temperature required for 10% of the material to volatilize) [1]: 312 °C | % Weathering Resistance [2]: 71%

O=C(OCCOc1ccc(C(=O)c2ccccc2)c(O)c1)OCCOc1ccc(C(=O)c2ccccc2)c(O)c1 [Compound D, {2-(3′-hydroxy-4′-benzoylphenoxy)ethyl}carbonate]
Volatility (in words) ([1]; TGA, compared with non-dimerized counterpart): lower volatility than its non-dimerized counterpart | T-10% (TGA, temperature required for 10% of the material to volatilize) [1]: 350 °C | Stability imparted (in words) [3]: excellent stability | % Weathering Resistance [2]: 71% | Stability imparted to the polycarbonate system (in words) ([2]; 0.35% in Lexan 121 PC): excellent stability | Solubility in 2-Butanone [4]: 2.69 g/100 g solvent | Solubility in Toluene [4]: 1.26 g/100 g solvent | Solubility characteristics (in words) ([4]; organic solvents): excellent solubility characteristics

O=C(c1ccccc1)c1ccc(OCCCCCCOc2ccc(C(=O)c3ccccc3)c(O)c2)cc1O [Compound E, 1,6-bis(3′hydroxy-4′-benzoylphenoxy)hexane]
T-10% (TGA, temperature required for 10% of the material to volatilize) [1]: 357 °C | % Weathering Resistance [2]: 69% | Solubility in 2-Butanone [4]: 0.37 g/100 g solvent | Solubility in Toluene [4]: 0.52 g/100 g solvent

CC(C)(C)CC(C)(C)c1cc(Cc2cc(C(C)(C)CC(C)(C)C)cc(-n3nc4ccccc4n3)c2O)c(O)c(-n2nc3ccccc3n2)c1 [Compound F]
TGA T-10% value [1]: approximately 365 °C | % Weathering Resistance [2]: 59%
